# Reference: patent US20240245673A1, “Papain-like protease (PLpro) inhibitors” (Pfizer Inc., priority 2022, published 2024)
# Target: SARS-CoV-2 Papain like protease (PLpro) (Severe acute respiratory syndrome coronavirus 2 (2019-nCoV) (SARS-CoV-2), UniProt P0DTD1)
# Assay: Papain Like Protease (PLpro) biochemical assay with profluorogenic substrate Z-RLRGG-AMC
# Details: IC50 (μM), SARS-CoV-2 PLpro 6.25 nM, 25 μM Z-RLRGG-AMC substrate, 60 minute reaction
row,Structure (SMILES),IC50
1,"Cc1ccc(N2CCNCC2)cc1C(=O)NC1(c2cc(-c3cnn(C)c3)cc3ccccc23)CC1 [Example 230, 2-methyl-N-(1-(3-(1-methyl-1H-pyrazol-4-yl)naphthalen-1-yl)cyclopropyl)-5-(piperazin-1-yl)benzamide]",0.003 µM
2,"Cc1ccc(N2CCN(C)CC2)cc1C(=O)NC1(c2cc(-c3cnn(C)c3)cc3ccccc23)CC1 [Example 231, 2-methyl-N-(1-(3-(1-methyl-1H-pyrazol-4-yl)naphthalen-1-yl)cyclopropyl)-5-(4-methylpiperazin-1-yl)benzamide]",0.003 µM

# Same assay, conditions: SARS-CoV-2 PLpro 6.25 nM, 25 μM Z-RLRGG-AMC substrate, 60 minute reaction; read-out: IC50
row,Structure (SMILES),IC50
1,"Cc1cc(C(C)(C)NC(=O)c2cscn2)ccc1C(=O)N[C@H](C)c1cc(-c2cnn(C)c2)nc2ccccc12 [Example 214, (R)-N-(2-(3-methyl-4-((1-(2-(1-methyl-1H-pyrazol-4-yl)quinolin-4-yl)ethyl)carbamoyl)phenyl)propan-2-yl)thiazole-4-carboxamide]",0.169 µM
2,"Cc1cc(C(C)(C)NC(=O)c2ncc[nH]2)ccc1C(=O)N[C@H](C)c1cc(-c2cnn(C)c2)nc2ccccc12 [Example 215, (R)-N-(2-(3-methyl-4-((1-(2-(1-methyl-1H-pyrazol-4-yl)quinolin-4-yl)ethyl)carbamoyl)phenyl)propan-2-yl)-1H-imidazole-2-carboxamide]",0.144 µM
3,"Cc1ccc(N2CCN(C)CC2)cc1C(=O)NC(C)c1cc(-c2cc(C(=O)O)c[nH]2)cc2ccccc12 (stereo not shown) [Example 216, 5-(4-(1-(2-methyl-5-(4-methylpiperazin-1-yl)benzamido)ethyl)naphthalen-2-yl)-1H-pyrrole-3-carboxylic acid]",0.012 µM
4,"Cc1ccc(CN)cc1C(=O)NC(C)c1cc(-c2cnn(C)c2)c(O)c2ccccc12 (stereo not shown) [Example 217, 5-(aminomethyl)-N-(1-(4-hydroxy-3-(1-methyl-1H-pyrazol-4-yl)naphthalen-1-yl)ethyl)-2-methylbenzamide]",0.119 µM
5,"C[C@@H](NC(=O)c1ccccc1CCC(=O)NNC(=O)[C@H]1O[C@@H]1C(=O)O)c1cc(-c2cnn(C)c2)nc2ccccc12 [Example 219, (2S,3S)-3-(2-(3-(2-(((R)-1-(2-(1-methyl-1H-pyrazol-4-yl)quinolin-4-yl)ethyl)carbamoyl)phenyl)propanoyl)hydrazine-1-carbonyl)oxirane-2-carboxylic acid]",0.001 µM
6,"COC(=O)[C@H]1O[C@@H]1C(=O)NNC(=O)CCc1ccccc1C(=O)N[C@H](C)c1cc(-c2cnn(C)c2)nc2ccccc12 [Example 220, methyl(2S,3S)-3-(2-(3-(2-(((R)-1-(2-(1-methyl-1H-pyrazol-4-yl)quinolin-4-yl)ethyl)carbamoyl)phenyl)propanoyl)hydrazine-1-carbonyl)oxirane-2-carboxylate]",0.002 µM
7,"Cc1cc(CNCc2cncn2C)ccc1C(=O)N[C@H](C)c1cc(-c2cnn(C)c2)nc2ccccc12 [Example 221, (R)-2-methyl-4-((((1-methyl-1H-imidazol-5-yl)methyl)amino)methyl)-N-(1-(2-(1-methyl-1H-pyrazol-4-yl)quinolin-4-yl)ethyl)benzamide]",0.015 µM
8,"CO/C=C/C(=O)NNC(=O)CCc1ccccc1C(=O)N[C@H](C)c1cc(-c2cnn(C)c2)nc2ccccc12 [Example 222, (R,E)-2-(3-(2-(3-methoxyacryloyl)hydrazineyl)-3-oxopropyl)-N-(1-(2-(1-methyl-1H-pyrazol-4-yl)quinolin-4-yl)ethyl)benzamide]",1.98 µM
9,"CNC(=O)/C=C/C(=O)NNC(=O)CCc1ccccc1C(=O)N[C@H](C)c1cc(-c2cnn(C)c2)nc2ccccc12 [Example 223, (R,E)-N-(1-(2-(1-methyl-1H-pyrazol-4-yl)quinolin-4-yl)ethyl)-2-(3-(2-(4-(methylamino)-4-oxobut-2-enoyl)hydrazineyl)-3-oxopropyl)benzamide]",0.058 µM
10,"C[C@@H](NC(=O)c1ccccc1CCC(=O)NNC(=O)/C=C/C(N)=O)c1cc(-c2cnn(C)c2)nc2ccccc12 [Example 224, (R,E)-2-(3-(2-(4-amino-4-oxobut-2-enoyl)hydrazineyl)-3-oxopropyl)-N-(1-(2-(1-methyl-1H-pyrazol-4-yl)quinolin-4-yl)ethyl)benzamide]",0.006 µM
11,"COC(=O)/C=C/C(=O)NNC(=O)CCc1ccccc1C(=O)NC1(c2cc(-c3cnn(C)c3)nc3ccccc23)CC1 [Example 225, methyl (E)-4-(2-(3-(2-((1-(2-(1-methyl-1H-pyrazol-4-yl)quinolin-4-yl)cyclopropyl)carbamoyl)phenyl)propanoyl)hydrazineyl)-4-oxobut-2-enoate]",0.006 µM
12,"Cn1cc(-c2cc(C3(NC(=O)c4ccccc4CCC(=O)NNC(=O)/C=C/C(N)=O)CC3)c3ccccc3n2)cn1 [Example 226, (E)-2-(3-(2-(4-amino-4-oxobut-2-enoyl)hydrazineyl)-3-oxopropyl)-N-(1-(2-(1-methyl-1H-pyrazol-4-yl)quinolin-4-yl)cyclopropyl)benzamide]",0.017 µM
13,"CCOC(=O)[C@H]1O[C@@H]1C(=O)NNC(=O)CCc1ccccc1C(=O)N[C@H](C)c1cc(-c2cnn(C)c2)nc2ccccc12 [Example 227, ethyl (2S,3S)-3-(2-(3-(2-(((R)-1-(2-(1-methyl-1H-pyrazol-4-yl)quinolin-4-yl)ethyl)carbamoyl)phenyl)propanoyl)hydrazine-1-carbonyl)oxirane-2-carboxylate]",0.002 µM
14,"COC(=O)c1c[nH]c(-c2cc(C(C)NC(=O)c3cc(N4CCN(C)CC4)ccc3C)c3ccccc3c2)c1 (stereo not shown) [Example 228, methyl 5-(4-(1-(2-methyl-5-(4-methylpiperazin-1-yl)benzamido)ethyl)naphthalen-2-yl)-1H-pyrrole-3-carboxylate]",0.007 µM
15,"Cc1ccc(N2CCN(C)CC2)cc1C(=O)NC(C)c1cc(-c2cc(C(=O)N(C)C)c[nH]2)cc2ccccc12 (stereo not shown) [Example 229, N,N-dimethyl-5-(4-(1-(2-methyl-5-(4-methylpiperazin-1-yl)benzamido)ethyl)naphthalen-2-yl)-1H-pyrrole-3-carboxamide]",0.006 µM
16,"CCOC(=O)/C=C/C(=O)NNC(=O)CCc1ccccc1C(=O)N[C@H](C)c1cc(-c2cnn(C)c2)nc2ccccc12 [Example 232, ethyl (R,E)-4-(2-(3-(2-((1-(2-(1-methyl-1H-pyrazol-4-yl)quinolin-4-yl)ethyl)carbamoyl)phenyl)propanoyl)hydrazineyl)-4-oxobut-2-enoate]",0.003 µM

row,Structure (SMILES),IC50
1,"CC(C)OC(=O)/C=C/C(=O)NNC(=O)CCc1ccccc1C(=O)N[C@H](C)c1cc(-c2cnn(C)c2)nc2ccccc12 [Example 233, isopropyl (R,E)-4-(2-(3-(2-((1-(2-(1-methyl-1H-pyrazol-4-yl)quinolin-4-yl)ethyl)carbamoyl)phenyl)propanoyl)hydrazineyl)-4-oxobut-2-enoate]",0.003 µM
2,"C[C@@H](NC(=O)c1ccccc1CCC(=O)NNC(=O)/C=C/C(=O)N(C)C)c1cc(-c2cnn(C)c2)nc2ccccc12 [Example 234, (R,E)-2-(3-(2-(4-(dimethylamino)-4-oxobut-2-enoyl)hydrazineyl)-3-oxopropyl)-N-(1-(2-(1-methyl-1H-pyrazol-4-yl)quinolin-4-yl)ethyl)benzamide]",0.128 µM
3,Cc1ccc(N2CCCC(N)C2=O)cc1C(=O)N[C@H](C)c1cc(-c2cnn(C)c2)nc2ccccc12 (stereo partly shown) [Example 235],0.091 µM
4,"Cc1cc(CC(=O)Nc2cscn2)ccc1C(=O)N[C@H](C)c1cc(-c2cnn(C)c2)nc2ccccc12 [Example 236, (R)-2-methyl-N-(1-(2-(1-methyl-1H-pyrazol-4-yl)quinolin-4-yl)ethyl)-4-(2-oxo-2-(thiazol-4-ylamino)ethyl)benzamide]",0.003 µM
5,"Cc1cc(CC(=O)Nc2cncs2)ccc1C(=O)N[C@H](C)c1cc(-c2cnn(C)c2)nc2ccccc12 [Example 237, (R)-2-methyl-N-(1-(2-(1-methyl-1H-pyrazol-4-yl)quinolin-4-yl)ethyl)-4-(2-oxo-2-(thiazol-5-ylamino)ethyl)benzamide]",0.036 µM
6,"Cc1cc(CC(=O)Nc2nccs2)ccc1C(=O)N[C@H](C)c1cc(-c2cnn(C)c2)nc2ccccc12 [Example 238, (R)-2-methyl-N-(1-(2-(1-methyl-1H-pyrazol-4-yl)quinolin-4-yl)ethyl)-4-(2-oxo-2-(thiazol-2-ylamino)ethyl)benzamide]",0.016 µM
7,"Cc1cc(CC(=O)Nc2ncc[nH]2)ccc1C(=O)N[C@H](C)c1cc(-c2cnn(C)c2)nc2ccccc12 [Example 239, (R)-4-(2-((1H-imidazol-2-yl)amino)-2-oxoethyl)-2-methyl-N-(1-(2-(1-methyl-1H-pyrazol-4-yl)quinolin-4-yl)ethyl)benzamide]",0.007 µM
8,Cc1ccc(N2CCC3(CCCCN3)C2=O)cc1C(=O)N[C@H](C)c1cc(-c2cnn(C)c2)nc2ccccc12 (stereo partly shown) [Example 240],0.026 µM
9,"Cc1cc(C(C)(C)NCc2cscn2)ccc1C(=O)N[C@H](C)c1cc(-c2cnn(C)c2)nc2ccccc12 [Example 241, (R)-2-methyl-N-(1-(2-(1-methyl-1H-pyrazol-4-yl)quinolin-4-yl)ethyl)-4-(2-((thiazol-4-ylmethyl)amino)propan-2-yl)benzamide]",0.007 µM
10,Cc1cc(C(=O)NC2(c3ncc[nH]3)CC2)ccc1C(=O)N[C@H](C)c1cc(-c2cnn(C)c2)nc2ccccc12 [Example 242],0.006 µM
11,Cc1cc(C(=O)N(C)Cc2cscn2)ccc1C(=O)N[C@H](C)c1cc(-c2cnn(C)c2)nc2ccccc12 [Example 243],0.077 µM
12,Cc1cc(C(=O)NC(C)(C)c2ncc[nH]2)ccc1C(=O)N[C@H](C)c1cc(-c2cnn(C)c2)nc2ccccc12 [Example 244],0.167 µM
13,Cc1cc(C(=O)NCc2ncc[nH]2)ccc1C(=O)N[C@H](C)c1cc(-c2cnn(C)c2)nc2ccccc12 [Example 245],0.005 µM
14,Cc1cc(C(=O)NC(C)c2ncc[nH]2)ccc1C(=O)N[C@H](C)c1cc(-c2cnn(C)c2)nc2ccccc12 (stereo partly shown) [Example 246],0.035 µM
15,Cc1ccc(N2CCC(N)C2=O)cc1C(=O)N[C@H](C)c1cc(-c2cnn(C)c2)nc2ccccc12 (stereo partly shown) [Example 247],0.091 µM
16,Cc1ccc(N2CCNCC2=O)cc1C(=O)N[C@H](C)c1cc(-c2cnn(C)c2)nc2ccccc12 [Example 248],0.39 µM
